Measurements taken from patent US20080118434A1 (The Board of the Trustees of The Leland Stanford J, priority 2003, published 2008).

Experiments:
[1] = tested on: hippocampal genes (mRNA levels); assay: Microarray analysis (GeneChip Rat Neurobiology U34) of gene expression in hippocampus of rats treated chronically with antidepressants; type: in vivo; settings: for hippocampal genes commonly regulated by fluoxetine and desipramine (list: Glutathione peroxidase 1 ... Insulin like growth factor II, Somatostatin): 10 mg/kg/d each; for hippocampal genes commonly regulated by fluoxetine and desipramine (list: Glutathione peroxidase 1 ... Insulin like growth factor II, Somatostatin) / hippocampal genes commonly regulated by desipramine and bupropion (list: NG,NG dimethylarginine dimethylaminohydrolase ... Retina S-antigen) / hippocampal genes commonly regulated by fluoxetine and bupropion (list: Transferrin ... Carbonic anhydrase 2): i.p., four weeks, vs saline; for hippocampal genes commonly regulated by fluoxetine and desipramine (list: Glutathione peroxidase 1 ... Insulin like growth factor II, Somatostatin) / hippocampal genes commonly regulated by desipramine and bupropion (list: NG,NG dimethylarginine dimethylaminohydrolase ... Retina S-antigen): >20% fold change, p<0.05; for hippocampal genes commonly regulated by desipramine and bupropion (list: NG,NG dimethylarginine dimethylaminohydrolase ... Retina S-antigen): desipramine 10 mg/kg/d; for hippocampal genes commonly regulated by desipramine and bupropion (list: NG,NG dimethylarginine dimethylaminohydrolase ... Retina S-antigen) / hippocampal genes commonly regulated by fluoxetine and bupropion (list: Transferrin ... Carbonic anhydrase 2): bupropion 20 mg/kg/day; for hippocampal genes commonly regulated by fluoxetine and bupropion (list: Transferrin ... Carbonic anhydrase 2): fluoxetine 10 mg/kg/d, selected results confirmed by real time RT-PCR
Protocol: (§1) Adult Sprague-Dawley male rats (250-300 g) were assigned to one of the following four groups (n=10 per group): 1. Saline injected animals (controls). 2. Bupropion treated animals. 3. Desipramine treated animals, and 4. Fluoxetine treated animals. Bupropion (20 mg/kg/day), Desipramine (10 mg/kg/d), Fluoxetine (10 mg/kg/d) and Saline were injected twice daily intraperitoneal (i.p.) for four weeks. Animals were sacrificed in the AM, the day after the last injection. Brains were obtained by rapid decapitation, and processed for gene array analysis (GAA), RT-PCR and in situ hybridization.
(§2) Four brains from each group were used for GAA, and real time RT-PCR confirmation. The remaining six brains were sectioned for in situ hybridization confirmation of the gene array analysis.
(§3) Array analysis was done using GeneChip® Rat Neurobiology U34 Arrays (Affymetrix). Whole hippocampus were dissected and total RNA samples were extracted using standard methods (Trizol, Invitrogen; Quigen Rneasy Mini Kit). Total RNA from each of the experimental groups were pooled. The column purified total RNA (10 μg) was converted to biotinylated cRNA hybridization probe following the manufacturers protocol. Labeled cRNA (30 ug) was fragmented in fragmentation buffer, and 15 ug were hybridized to the oligonucletide microarray in 300 μl of hybridization solution.
(§4) Samples from each group were run in independently labeled triplicates. The raw intensity data was analyzed with dCHIP software (Li and Wong, 2002).
Using a criteria of greater than 20% fold change (90% lower bound confidence limit) and a t-test value yielding a probability of p<0.05, we found 28 genes that were regulated by all three antidepressants compared to saline treatment. Nine of these genes were ESTs.
Regulation of these genes can conveniently be confirmed by Real Time RT-PCR, and in situ hybridization. Regulation of two of the genes has been confirmed by RT-PCR.

[2] = tested on: hypothalamic genes (mRNA levels); assay: Microarray analysis of gene expression in hypothalamus of rats treated chronically with antidepressants; type: in vivo, rat; settings: rats treated with fluoxetine, bupropion and/or desipramine; i.p. twice daily for four weeks
Excerpt: Membrane microarray analysis was used to compare expression levels of over 8,000 genes in the hypothalamus of rats treated chronically with a specific serotonin reuptake inhibitor (i.e., fluoxetine), a tricyclic antidepressant (i.e., desipramine), and a dopamine reuptake inhibitor (i.e., bupropion).
as §1, §2, §3, §4
Genes were identified using a criteria of greater than 20% fold change (90% lower bound confidence limit) and a t-test value yielding a probability of p<0.05.
The microarray analysis results were confirmed by in situ hybridization.

[3] = rats treated with desipramine and/or bupropion
[4] = rats treated with fluoxetine and/or desipramine
[5] = rats treated with fluoxetine, bupropion and/or desipramine, i.p. twice daily for four weeks
[6] = rats treated with bupropion and/or fluoxetine

hippocampal genes commonly regulated by fluoxetine and desipramine (list: Glutathione peroxidase 1 ... Insulin like growth factor II, Somatostatin) [1] | hippocampal genes commonly regulated by desipramine and bupropion (list: NG,NG dimethylarginine dimethylaminohydrolase ... Retina S-antigen) [1] | hippocampal genes commonly regulated by fluoxetine and bupropion (list: Transferrin ... Carbonic anhydrase 2) [1] | Structure (SMILES) | number of hippocampal genes with altered mRNA levels [1, 3] | number of hippocampal genes with altered mRNA levels [1, 4] | number of hippocampal genes with altered mRNA levels [1, 5] | number of hypothalamic genes with altered mRNA levels [2] | number of hippocampal genes with altered mRNA levels [1, 6]
commonly regulated | commonly regulated | – | CNCCCN1c2ccccc2CCc2ccccc21 [desipramine] | 46 | 33 | 18 | 3 | –
– | commonly regulated | commonly regulated | CC(NC(C)(C)C)C(=O)c1cccc(Cl)c1 (stereo not drawn) [bupropion] | 46 | – | 18 | 3 | 11
commonly regulated | – | commonly regulated | CNCCC(Oc1ccc(C(F)(F)F)cc1)c1ccccc1 (stereo not drawn) [fluoxetine] | – | 33 | 18 | 3 | 11
